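Results reflect a 48-hour exposure of cells in 96-well plates to compound at five concentrations. Definition used: TGI = concentration required for complete inhibition of growth.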 Where a SMILES comes first, the peptide text is derived from it. The star is where a group is joined. Fmoc = O=C(OCC1c2ccccc2-c2ccccc21)*; OBn = c1ccc(CO*)cc1; tBu = CC(C)(C)*
Legend:
Assay in all cases: NCI tumour cell line growth inhibition, 48 h
MOLT-4 leukemia = tested on: MOLT-4 leukemia
HS 578T breast = tested on: HS 578T breast
EKVX NSCLC = tested on: EKVX NSCLC
TK-10 renal = tested on: TK-10 renal
BT-549 breast = tested on: BT-549 breast
NCI-H460 lung = tested on: NCI-H460 lung
MDA-N = tested on: MDA-N
MALME-3M melanoma = tested on: MALME-3M melanoma
OVCAR-8 ovarian = tested on: OVCAR-8 ovarian
DMS 273 small cell lung = tested on: DMS 273 small cell lung
HOP-18 NSCLC = tested on: HOP-18 NSCLC
XF 498 CNS = tested on: XF 498 CNS

Measured: TGI

COc1cc(/C=C2\C(=O)N(c3ccc(Cl)cc3)C(c3ccccc3)S2(=O)=O)cc(OC)c1OC (centres undefined)
20.1 µM: MDA-N
not listed: DMS 273 small cell lung | HOP-18 NSCLC | XF 498 CNS
> 100 µM: all other assays above

CC1OC23CCCCC2C(C#N)(C#N)C1(C#N)C(=N)O3 (centres undefined)
90.1 µM: MOLT-4 leukemia
43.5 µM: NCI-H460 lung | MALME-3M melanoma
57.8 µM: HS 578T breast
91.1 µM: EKVX NSCLC
35.8 µM: MDA-N
34.4 µM: BT-549 breast
54.1 µM: OVCAR-8 ovarian
46.8 µM: TK-10 renal

COc1ccc(/C=C2\N=C3N(Cc4ccccc4)C=C(N)N3C2=O)cc1
73 µM: HS 578T breast
not listed: DMS 273 small cell lung | HOP-18 NSCLC | XF 498 CNS
> 100 µM: all other assays above

Cc1cc(C)c(C2=NO[C@@H]3[C@H]2C(=O)C=C2N(Cc4ccccc4)CCO[C@@]23O)c(C)c1
not listed: HS 578T breast | TK-10 renal | BT-549 breast | MDA-N
> 100 µM: all other assays above

Clc1ccc(C2=CC(c3ccccc3)N3C(=N[C@H]4CCCC[C@@H]43)N2)cc1 (some centres undefined)
20 µM: TK-10 renal
23.6 µM: HS 578T breast
14.5 µM: MALME-3M melanoma
17.4 µM: EKVX NSCLC
11.4 µM: OVCAR-8 ovarian
21.3 µM: BT-549 breast
12.5 µM: MOLT-4 leukemia
8.72 µM: NCI-H460 lung
18.9 µM: MDA-N

CCOC(=O)CC1(N)CC2c3ccccc3OC(=O)C2C(=O)N1 (centres undefined)
not listed: DMS 273 small cell lung | HOP-18 NSCLC | XF 498 CNS
> 100 µM: all other assays above

CCOC(=O)CCC(C(=O)OCC)n1nnc2cc(Nc3c(C)[n+]([O-])c4cc(Cl)ccc4[n+]3[O-])ccc21 (centres undefined)
71.9 µM: EKVX NSCLC
not listed: DMS 273 small cell lung | HOP-18 NSCLC | XF 498 CNS
> 100 µM: all other assays above

CC(=O)CCN1CC2CN=NC2(C#N)C1 (centres undefined)
> 56.7 µM: MOLT-4 leukemia
> 95.7 µM: HS 578T breast
not listed: DMS 273 small cell lung | HOP-18 NSCLC | XF 498 CNS
> 100 µM: all other assays above

c1ccc(CN2CCC(CNc3ncnc4ccccc34)C2)cc1 (centres undefined)
43 µM: MALME-3M melanoma
not listed: DMS 273 small cell lung | HOP-18 NSCLC | XF 498 CNS
> 100 µM: all other assays above

CCOC(=O)/C=C(/OCC)[C@@H]1C(C(=O)c2ccc(Cl)cc2)[C@@H]1/C(=C\C(=O)OCC)OCC (some centres undefined)
43.6 µM: TK-10 renal
> 24.4 µM: MOLT-4 leukemia
not listed: DMS 273 small cell lung | HOP-18 NSCLC | XF 498 CNS
> 100 µM: all other assays above

Fc1cccc(C2ON=C(c3ccccc3)N2C23CC4CC(CC(C4)C2)C3)c1 (centres undefined)
not listed: DMS 273 small cell lung | HOP-18 NSCLC | XF 498 CNS
> 10 µM: all other assays above

CN=C1C=C(/N=C2/C=C(N/C(=C\C#N)C(C)(C)O)OC2(C)C)OC1(C)C
> 47.2 µM: OVCAR-8 ovarian
> 77.8 µM: BT-549 breast
not listed: DMS 273 small cell lung | HOP-18 NSCLC | XF 498 CNS
> 100 µM: all other assays above

O=c1[nH]c(NCCCCCO)nc2nc[nH]c12
not listed: DMS 273 small cell lung | HOP-18 NSCLC | XF 498 CNS
> 100 µM: all other assays above

C[N+](C)([O-])C12CC3CC(CC(C3)C1)C2
74.3 µM: EKVX NSCLC
88 µM: TK-10 renal
not listed: DMS 273 small cell lung | HOP-18 NSCLC | XF 498 CNS
> 100 µM: all other assays above

Clc1ccc(-c2nn3c(COc4ccc(OCc5nnc6sc(-c7ccc(Cl)cc7)nn56)c(Cl)c4)nnc3s2)cc1
75 µM: OVCAR-8 ovarian
45.7 µM: TK-10 renal
52.7 µM: BT-549 breast
> 100 µM: MOLT-4 leukemia | HS 578T breast | EKVX NSCLC | NCI-H460 lung | MALME-3M melanoma
67.2 µM: MDA-N

CC(C)(C)c1cc(C(C)(C)C)c2sc(=O)oc2c1O
31.4 µM: HS 578T breast
31.2 µM: OVCAR-8 ovarian
> 100 µM: MOLT-4 leukemia
29.2 µM: EKVX NSCLC
29.9 µM: MDA-N
24.1 µM: TK-10 renal
30.2 µM: MALME-3M melanoma
32.9 µM: BT-549 breast
18.8 µM: NCI-H460 lung

O=C(O)C1C2OC(C(Br)C2Br)C1C(=O)O (centres undefined)
not listed: DMS 273 small cell lung | HOP-18 NSCLC | XF 498 CNS
> 100 µM: all other assays above

CC(C)C(Nc1c2ccccc2[n+](C)c2ccccc12)C(=O)O (centres undefined)
not listed: HS 578T breast | BT-549 breast | MDA-N
> 100 µM: all other assays above

CC(OC(C)(C)C)C(NC(=O)OCC1c2ccccc2-c2ccccc21)C(=O)NC(Cc1ccccc1)C(=O)OCc1ccccc1 (centres undefined) (Fmoc-Thr(tBu)-Phe-OBn; configuration not given here)
not listed: DMS 273 small cell lung | HOP-18 NSCLC | XF 498 CNS
> 100 µM: all other assays above

CC(C)(C)OC(=O)N1CCC2(CC1)C(=O)NCN2c1ccccc1
not listed: DMS 273 small cell lung | HOP-18 NSCLC | XF 498 CNS
> 100 µM: all other assays above
